Our source for the MIC values is patent US7868135B2, “Compositions of lipopeptide antibiotic derivatives and methods of use thereof” (priority 2003, dated 2011).

Starred links: 1 amine or outer side, 2 acyl side, 3 side chain; linkers in the order of their positions; H or OH if unused. Positions of bridges follow the written chain, without caps; N, C: chain ends. Non-standard residues stand in square brackets, D forms with d. Residues, ends and D or L forms follow the SMILES beside them. ξ: configuration not given here. *: point of attachment. X6 = CC(NC(=O)C12CC3CC(CC(C3)C1)C2)C(N[*:1])C(=O)[*:2]; X11 = CC(NC(=O)CC1CC2CCC1C2)C(N[*:1])C(=O)[*:2]; Propanoyl(3-SO2Ph) = O=C(CCS(=O)(=O)c1ccccc1)*; ξAbu(βξ-NH2) = CC(N[*:3])C(N[*:1])C(=O)[*:2]; Pentadecanoyl = CCCCCCCCCCCCCCC(=O)*; ξAsp(βξ-Me) = CC(C(=O)O)C(N)C(=O)O; X1 = O=C(Cc1ccc(N[*:1])cc1)[*:2]; X13 = O=C(CCCCCCCCCCOc1ccccc1)*; ξAbu(3ξ-NH2) = CC(N)C(N)C(=O)O; 12Ado = NCCCCCCCCCCCC(=O)O; Decanoyl = CCCCCCCCCC(=O)*; Pip = O=C(O)[CH]1CCCCN1; ξD = NC(CC(=O)O)C(=O)O; ξPip = O=C(O)C1CCCCN1; ξV = CC(C)C(N)C(=O)O; ξP = O=C(O)C1CCCN1

The subject of one assay is Staphylococcus aureus (MSSA). The conditions noted are these: 24 h. Summed up: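 Broth microdilution MIC per NCCLS M7-A6 with doubling serial dilutions, in cation-adjusted Mueller-Hinton broth supplemented with 0.625 mM calcium.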
As for `CCCCCCCCCCCCOc1cccc2ccc(C(=O)NC(CC(=O)O)C(=O)NC3C(=O)N4CCCCC4C(=O)NC(C(C)C(=O)O)C(=O)NC(CC(=O)O)C(=O)NCC(=O)NC(CC(=O)O)C(=O)NCC(=O)NC(C(C)N)C(=O)NC(C(C)C)C(=O)N4CCCC4C(=O)NC3C)nc12` (centres unmarked) [Compound 339, (8-Dodecyloxy-Quinoline-2-Carbonyl)-Amphomycin], the MIC came to 0.5 µg/mL.

On to `CCCCCCCCCCCCCCC(=O)NC(CC(=O)O)C(=O)NC1C(=O)N2CCCCC2C(=O)NC(C(C)C(=O)O)C(=O)NC(CC(=O)O)C(=O)NCC(=O)NC(CC(=O)O)C(=O)NCC(=O)NC(C(C)NC(=O)CCS(=O)(=O)c2ccccc2)C(=O)NC(C(C)C)C(=O)N2CCCC2C(=O)NC1C` (stereo not drawn) [Compound 350, C15-Amphomycin-9-(3-(Benzenesulfonyl)Propionoyl)] (Pentadecanoyl-D[ξAbu(βξ-NH2)][Pip][ξAsp(βξ-Me)]DGDG[ξAbu(βξ-NH2)](Propanoyl(3-SO2Ph))VP; lactam 2-C; configuration not given here), for which the MIC was determined as 64 µg/mL.

Consider `CCCCCCCCCCCCCCC(=O)NC(CC(=O)O)C(=O)NC1C(=O)N2CCCCC2C(=O)NC(C(C)C(=O)O)C(=O)NC(CC(=O)O)C(=O)NCC(=O)NC(CC(=O)O)C(=O)NCC(=O)NC(C(C)NC(=O)C23CC4CC(CC(C4)C2)C3)C(=O)NC(C(C)C)C(=O)N2CCCC2C(=O)NC1C` (stereo not drawn) [Compound 232, C15-Amphomycin-9-(1-Adamantanylcarbonyl)] (Pentadecanoyl-D[ξAbu(βξ-NH2)][Pip][ξAsp(βξ-Me)]DGDG[X6]VP; lactam 2-C; configuration not given here), for which the MIC worked out at 4 µg/mL. Same read-out and setting: to `CCCCCCCCCCCCCCC(=O)NC(CC(=O)O)C(=O)NC1C(=O)N2CCCCC2C(=O)NC(C(C)C(=O)O)C(=O)NC(CC(=O)O)C(=O)NCC(=O)NC(CC(=O)O)C(=O)NCC(=O)NC(C(C)NC(=O)CNC(=O)[C@@H](N)C(C)C)C(=O)NC(C(C)C)C(=O)N2CCCC2C(=O)NC1C` (some centres unmarked) [Compound 37, C15-Amphomycin-9-Gly-Val] belongs 2 to 4 µg/mL; to `CCCCCCCCCC(=O)Nc1ccc(CC(=O)NC(CC(=O)O)C(=O)NC2C(=O)N3CCCCC3C(=O)NC(C(C)C(=O)O)C(=O)NC(CC(=O)O)C(=O)NCC(=O)NC(CC(=O)O)C(=O)NCC(=O)NC(C(C)N)C(=O)NC(C(C)C)C(=O)N3CCCC3C(=O)NC2C)cc1` (stereo not drawn) [Compound 122, CH3—(CH2)9-(p-Apa)-Amphomycin] (Decanoyl-[X1]D[ξAbu(βξ-NH2)][Pip][ξAsp(βξ-Me)]DGDG[ξAbu(3ξ-NH2)]VP; lactam 3-C; configuration not given here; N-terminus assumed), 8 µg/mL.

Take `CCCCCCCCCC(=O)Nc1ccc(C(=O)NC(CC(=O)O)C(=O)NC2C(=O)N3CCCCC3C(=O)NC(C(C)C(=O)O)C(=O)NC(CC(=O)O)C(=O)NCC(=O)NC(CC(=O)O)C(=O)NCC(=O)NC(C(C)N)C(=O)NC(C(C)C)C(=O)N3CCCC3C(=O)NC2C)cc1` (centres unmarked) [Compound 283, C10-PABA-Amphomycin]: the minimum inhibitory concentration (MIC) is 2 µg/mL.

On to `CCCCCCCCCCCCCCC(=O)NC(CC(=O)O)C(=O)NC1C(=O)N2CCCCC2C(=O)NC(C(C)C(=O)O)C(=O)NC(CC(=O)O)C(=O)NCC(=O)NC(CC(=O)O)C(=O)NCC(=O)NC(C(C)NC(=O)[C@@H](N)CCc2ccccc2)C(=O)NC(C(C)C)C(=O)N2CCCC2C(=O)NC1C` (some centres unmarked) [Compound 32, C15-Amphomycin-9-hPhe], for which the MIC stood at 8 µg/mL. Regarding `CCCCCCCCCCCCCCC(=O)NC(CC(=O)O)C(=O)NC1C(=O)N2CCCCC2C(=O)NC(C(C)C(=O)O)C(=O)NC(CC(=O)O)C(=O)NCC(=O)NC(CC(=O)O)C(=O)NCC(=O)NC(C(C)NC(=O)CNC(=O)CNC(=O)CN)C(=O)NC(C(C)C)C(=O)N2CCCC2C(=O)NC1C` (stereo not drawn) [Compound 33, C15-Amphomycin-9-Gly-Gly-Gly], the MIC lay in the range of 0.5 to 1 µg/mL. The same measure, in the same setting: to `CCCCCCCCCCCCCCCCNC(=O)NC(CC(=O)O)C(=O)NC1C(=O)N2CCCCC2C(=O)NC(C(C)C(=O)O)C(=O)NC(CC(=O)O)C(=O)NCC(=O)NC(CC(=O)O)C(=O)NCC(=O)NC(C(C)NC(=O)CN)C(=O)NC(C(C)C)C(=O)N2CCCC2C(=O)NC1C` (centres unmarked) [Compound 83, CH3—(CH2)15—NH—C(═O)-Amphomycin-9-Gly] belongs 2 µg/mL; to `CCCCCCCCCCCCCCC(=O)N[C@H](CC(=O)OC)C(=O)NC(CC(=O)O)C(=O)NC1C(=O)N2CCCCC2C(=O)NC(C(C)C(=O)O)C(=O)NC(CC(=O)O)C(=O)NCC(=O)NC(CC(=O)O)C(=O)NCC(=O)NC(C(C)N)C(=O)NC(C(C)C)C(=O)N2CCCC2C(=O)NC1C` (stereo partly drawn) [Compound 317, C15-(Asp-(Ome))-Amphomycin] (Pentadecanoyl-[dD](OMe)[ξD][ξAbu(βξ-NH2)][ξPip][ξAsp(βξ-Me)][ξD]G[ξD]G[ξAbu(3ξ-NH2)][ξV][ξP]; lactam 3-C), 1 µg/mL. Still for that read-out and setting: then `CCCCCCCCCCCCCCC(=O)NC(CC(=O)O)C(=O)NC1C(=O)N2CCCCC2C(=O)NC(C(C)C(=O)O)C(=O)NC(CC(=O)O)C(=O)NCC(=O)NC(CC(=O)O)C(=O)NCC(=O)NC(C(C)NC(=O)CCCCCN)C(=O)NC(C(C)C)C(=O)N2CCCC2C(=O)NC1C` (centres unmarked) [Compound 25, C15-Amphomycin-9-Ahx], with 1 µg/mL.

Regarding `CCCCCCCCCCCCCCCCCC(=O)NC(CC(=O)O)C(=O)NC1C(=O)N2CCCCC2C(=O)NC(C(C)C(=O)O)C(=O)NC(CC(=O)O)C(=O)NCC(=O)NC(CC(=O)O)C(=O)NCC(=O)NC(C(C)N)C(=O)NC(C(C)C)C(=O)N2CCCC2C(=O)NC1C` (centres unmarked) [Compound 13, C18-Amphomycin], the MIC is 2 µg/mL. In the case of `CCCCCCCCCC(=O)NC(CC(=O)O)C(=O)NC1C(=O)N2CCCCC2C(=O)NC(C(C)C(=O)O)C(=O)NC(CC(=O)O)C(=O)NCC(=O)NC(CC(=O)O)C(=O)NCC(=O)NC(C(C)N)C(=O)NC(C(C)C)C(=O)N2CCCC2C(=O)NC1C` (centres unmarked) [Compound 6, C10-Amphomycin], the MIC fell in the range of 32 to 64 µg/mL. Same read-out and setting: then `CCCCCCCCCCCCCCC(=O)NC(CC(=O)O)C(=O)NC1C(=O)N2CCCCC2C(=O)NC(C(C)C(=O)O)C(=O)NC(CC(=O)O)C(=O)NCC(=O)NC(CC(=O)O)C(=O)NCC(=O)NC(C(C)NC(=O)CCCCCCCCCCOc2ccccc2)C(=O)NC(C(C)C)C(=O)N2CCCC2C(=O)NC1C` (stereo not drawn) [Compound 348, C15-Amphomycin-9-(11-Phenoxyundecanoyl)] (Pentadecanoyl-D[ξAbu(βξ-NH2)][Pip][ξAsp(βξ-Me)]DGDG[ξAbu(βξ-NH2)](X13)VP; lactam 2-C; configuration not given here), with greater than 64 µg/mL; and `CCCCCCCCCCCCCCC(=O)NC(CC(=O)O)C(=O)NC1C(=O)N2CCCCC2C(=O)NC(C(C)C(=O)O)C(=O)NC(CC(=O)O)C(=O)NCC(=O)NC(CC(=O)O)C(=O)NCC(=O)NC(C(C)NC(=O)[C@@H](N)CC)C(=O)NC(C(C)C)C(=O)N2CCCC2C(=O)NC1C` (some centres unmarked) [Compound 164, C15-Amphomycin-9-Abu], with 4 µg/mL. On the same count and under the same terms, to `CCCCCCCCCCCCCCC(=O)NC(CC(=O)O)C(=O)NC1C(=O)N2CCCCC2C(=O)NC(C(C)C(=O)O)C(=O)NC(CC(=O)O)C(=O)NCC(=O)NC(CC(=O)O)C(=O)NCC(=O)NC(C(C)NC(=O)CC2CC3CCC2C3)C(=O)NC(C(C)C)C(=O)N2CCCC2C(=O)NC1C` (stereo not drawn) [Compound 208, C15-Amphomycin-9-(2-Norbornaneacetyl)] (Pentadecanoyl-D[ξAbu(βξ-NH2)][Pip][ξAsp(βξ-Me)]DGDG[X11]VP; lactam 2-C; configuration not given here) belongs 4 µg/mL; to `CC(=O)NCCCCCCCCCCCC(=O)NC(CC(=O)O)C(=O)NC1C(=O)N2CCCCC2C(=O)NC(C(C)C(=O)O)C(=O)NC(CC(=O)O)C(=O)NCC(=O)NC(CC(=O)O)C(=O)NCC(=O)NC(C(C)N)C(=O)NC(C(C)C)C(=O)N2CCCC2C(=O)NC1C` (stereo not drawn) [Compound 374, (12-Acetylaminododecanoyl)-Amphomycin] (Ac-[12Ado]D[ξAbu(βξ-NH2)][Pip][ξAsp(βξ-Me)]DGDG[ξAbu(3ξ-NH2)]VP; lactam 3-C; configuration not given here; N-terminus assumed), greater than 64 µg/mL. Same read-out and setting: to `CCCCCCCCCCCCCCC(=O)NC(CC(=O)O)C(=O)NC1C(=O)N2CCCCC2C(=O)NC(C(C)C(=O)O)C(=O)NC(CC(=O)O)C(=O)NCC(=O)NC(CC(=O)O)C(=O)NCC(=O)NC(C(C)NC(=O)CCCCCCCCC)C(=O)NC(C(C)C)C(=O)N2CCCC2C(=O)NC1C` (centres unmarked) [Compound 220, C15-Amphomycin-9-C10] belongs 2 µg/mL.

The same assay, now with this note: S. aureus (MSSA), CAMHB supplemented with 0.625 mM calcium, 24 hours at about 37° C.; a range = compound tested multiple times.
As for “(2-Dodecanoylamino-Thiazol-4-yl)Acetyl-Amphomycin [Compound 337]”, the MIC was 0.25 to 1 µg/mL. Same read-out and setting: to `CCCCCCCCCCCCCCC(=O)NC(CC(=O)O)C(=O)NC1C(=O)N2CCCCC2C(=O)NC(C(C)C(=O)O)C(=O)NC(CC(=O)O)C(=O)NCC(=O)NC(CC(=O)O)C(=O)NCC(=O)NC(C(C)NC(=O)CCCCC(C)=O)C(=O)NC(C(C)C)C(=O)N2CCCC2C(=O)NC1C` (centres unmarked) [Compound 237, C15-Amphomycin-9-(6-Oxoheptanoyl)] belongs 16 µg/mL; to “CH3—(CH2)13—NH—C(═O)-(p-Phenylacetyl)-Amphomycin [Compound 289]”, 2 µg/mL; to `CCCCCCCCCCCCCCC(=O)NC(CC(=O)O)C(=O)NC1C(=O)N2CCCCC2C(=O)NC(C(C)C(=O)O)C(=O)NC(CC(=O)O)C(=O)NCC(=O)NC(CC(=O)O)C(=O)NCC(=O)NC(C(C)NC(=O)CCCc2cc3ccc4cccc5ccc(c2)c3c45)C(=O)NC(C(C)C)C(=O)N2CCCC2C(=O)NC1C` (centres unmarked) [Compound 351, C15-Amphomycin-9-(4-(Pyren-2-yl)Butyroyl)], greater than 64 µg/mL.

With `CCCCCCCCCCCCCCCCC(=O)NC(CC(=O)O)C(=O)NC1C(=O)N2CCCCC2C(=O)NC(C(C)C(=O)O)C(=O)NC(CC(=O)O)C(=O)NCC(=O)NC(CC(=O)O)C(=O)NCC(=O)NC(C(C)NC(=O)CNC)C(=O)NC(C(C)C)C(=O)N2CCCC2C(=O)NC1C` (centres unmarked) [Compound 78, C17-Amphomycin-9-Sar], the minimum inhibitory concentration (MIC) is given as 78/1 μg/mL.
